Columns and labels:
Assay type in all cases: in vivo
[1] = system: barnyardgrass (Echinochloa crus-galli); experiment: Test B flooded paddy test; conditions: Flood, scale 0 to 100
Outline: (§1)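 Visual injury scoring (0 = no effect, 100 = complete control) versus controls made 13 to 15 days after treatment in the greenhouse. Test species were grown in flooded paddy to the 2-leaf stage: rice, barnyardgrass, umbrella sedge, duck salad.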

rice (Oryza sativa) = experiment: Test B flooded paddy test; conditions: Flood, scale 0 to 100
Outline: as §1

[2] = system: duck salad (Heteranthera limosa); experiment: Test B flooded paddy test; conditions: Flood, scale 0 to 100
Outline: as §1

[3] = system: umbrella sedge (Cyperus difformis); experiment: Test B flooded paddy test; conditions: Flood, scale 0 to 100
Outline: as §1

[4] = system: blackgrass (Alopecurus myosuroides); experiment: Test B postemergence; conditions: scale 0 to 100 (0 no effect, 100 complete control)
Outline: (§2)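 Plants treated pre- or postemergence were compared visually with controls after 13 to 15 days. Ratings ran from 0, no effect, to 100, complete control.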

wild oat (Avena fatua) = experiment: Test B postemergence; conditions: scale 0 to 100 (0 no effect, 100 complete control)
Outline: as §2

[5] = system: pigweed (Amaranthus retroflexus); experiment: Test B pre/postemergence; conditions: for Pigweed plant response rating: Postemergence; for Plant response rating, Pigweed: Preemergence
Outline: as §2

[6] = system: barnyardgrass (Echinochloa crus-galli); experiment: Test B pre/postemergence; conditions: for Barnyardgrass plant response rating: Postemergence, scale 0 to 100 (0 no effect, 100 complete control)
Outline: as §2

[7] = system: crabgrass (Digitaria sanguinalis); experiment: Test B pre/postemergence; conditions: for Crabgrass plant response rating: Postemergence; for Plant response rating, Crabgrass: Preemergence
Outline: as §2

[8] = system: lambsquarters (Chenopodium album); experiment: Test B pre/postemergence; conditions: for Lambsquarters plant response rating: Postemergence; for Plant response rating, Lambsquarters: Preemergence
Outline: as §2

[9] = system: Surinam grass (Brachiaria decumbens); experiment: Test B pre/postemergence; conditions: for Surinam Grass plant response rating: Postemergence; for Plant response rating, Surinam Grass: Preemergence
Outline: as §2

[10] = system: cocklebur (Xanthium strumarium); experiment: Test B pre/postemergence; conditions: for Cocklebur plant response rating: Postemergence; for Plant response rating, Cocklebur: Preemergence
Outline: as §2

[11] = system: wheat (Triticum aestivum); experiment: Test B pre/postemergence; conditions: for Wheat plant response rating: Postemergence; for Plant response rating, Wheat: Preemergence
Outline: as §2

corn (Zea mays) = experiment: Test B pre/postemergence; conditions: for Corn plant response rating: Postemergence; for Plant response rating, Corn: Preemergence
Outline: as §2

[12] = system: giant foxtail (Setaria faberii); experiment: Test B pre/postemergence; conditions: for Foxtail, Giant plant response rating: Postemergence; for Plant response rating, Foxtail, Giant: Preemergence
Outline: as §2

[13] = system: velvetleaf (Abutilon theophrasti); experiment: Test B pre/postemergence; conditions: for Velvetleaf plant response rating: Postemergence; for Plant response rating, Velvetleaf: Preemergence
Outline: as §2

[14] = system: morningglory (Ipomoea coccinea); experiment: Test B pre/postemergence; conditions: for Morningglory plant response rating: Postemergence; for Plant response rating, Morningglory: Preemergence
Outline: as §2

[15] = 62 g ai/ha, scale 0 to 100 (0 no effect, 100 complete control)
[16] = 125 g ai/ha, scale 0 to 100 (0 no effect, 100 complete control)
[17] = 62 g ai/ha, scale 0 to 100, 0 no effect, 100 complete control

Compound: Nc1nc(-c2ccc(Br)cc2)nc(C(=O)O)c1Br [Compound 136]
- Plant response rating, Barnyardgrass ([1]; 125 g ai/ha): 0
- Plant response rating, Barnyardgrass ([1]; 500 g ai/ha): 20
- Plant response rating, Rice (rice (Oryza sativa); 125 g ai/ha): 0
- Plant response rating, Rice (rice (Oryza sativa); 500 g ai/ha): 40
- Plant response rating, Ducksalad ([2]; 125 g ai/ha): 90
- Plant response rating, Ducksalad ([2]; 500 g ai/ha): 90
- Plant response rating, Sedge, Umbrella ([3]; 125 g ai/ha): 90
- Plant response rating, Sedge, Umbrella ([3]; 500 g ai/ha): 90
- Blackgrass plant response rating ([4]; 62 g ai/ha): 70
- Blackgrass plant response rating ([4]; 125 g ai/ha): 70
- Oat, Wild plant response rating (wild oat (Avena fatua); 62 g ai/ha): 20
- Oat, Wild plant response rating (wild oat (Avena fatua); 125 g ai/ha): 50
- Pigweed plant response rating [5, 15]: 90
- Pigweed plant response rating [5, 16]: 100
- Plant response rating, Pigweed [5, 17]: 80
- Plant response rating, Pigweed [5, 16]: 100
- Barnyardgrass plant response rating ([6]; 62 g ai/ha): 70
- Barnyardgrass plant response rating ([6]; 125 g ai/ha): 90
- Plant response rating, Barnyardgrass ([6]; Preemergence, 62 g ai/ha, scale 0 to 100, 0 no effect, 100 complete control): 30
- Crabgrass plant response rating [7, 15]: 70
- Crabgrass plant response rating [7, 16]: 80
- Plant response rating, Crabgrass [7, 17]: 70
- Plant response rating, Crabgrass [7, 16]: 80
- Lambsquarters plant response rating [8, 15]: 100
- Lambsquarters plant response rating [8, 16]: 100
- Plant response rating, Lambsquarters [8, 17]: 90
- Plant response rating, Lambsquarters [8, 16]: 100
- Surinam Grass plant response rating [9, 15]: 70
- Surinam Grass plant response rating [9, 16]: 80
- Plant response rating, Surinam Grass [9, 17]: 10
- Plant response rating, Surinam Grass [9, 16]: 50
- Cocklebur plant response rating [10, 15]: 90
- Cocklebur plant response rating [10, 16]: 100
- Plant response rating, Cocklebur [10, 17]: 40
- Plant response rating, Cocklebur [10, 16]: 70
- Wheat plant response rating [11, 15]: 20
- Wheat plant response rating [11, 16]: 60
- Plant response rating, Wheat [11, 17]: 50
- Plant response rating, Wheat [11, 16]: 70
- Corn plant response rating (corn (Zea mays); [15]): 40
- Corn plant response rating (corn (Zea mays); [16]): 70
- Plant response rating, Corn (corn (Zea mays); [17]): 0
- Plant response rating, Corn (corn (Zea mays); [16]): 0
- Foxtail, Giant plant response rating [12, 15]: 60
- Foxtail, Giant plant response rating [12, 16]: 70
- Plant response rating, Foxtail, Giant [12, 17]: 10
- Plant response rating, Foxtail, Giant [12, 16]: 50
- Velvetleaf plant response rating [13, 15]: 80
- Velvetleaf plant response rating [13, 16]: 90
- Plant response rating, Velvetleaf [13, 17]: 60
- Plant response rating, Velvetleaf [13, 16]: 80
- Morningglory plant response rating [14, 15]: 40
- Morningglory plant response rating [14, 16]: 100
- Plant response rating, Morningglory [14, 17]: 10
- Plant response rating, Morningglory [14, 16]: 40
